Measured values: US4988687A, “Cephalosporin derivatives, and antibacterial agents” (priority 1986, dated 1991)
In brackets after ≈: the same amount, converted by molar mass. Read-outs that look alike come from different tables or passages of the source.

Key:
P. vulgaris No. 33 = test: agar plate dilution method, MIC against P. vulgaris No. 33; format: cell-based; settings: Proteus vulgaris, read-out: Minimum Inhibitory Concentration (MIC)
Experimental: (§1) The in vitro antibacterial activities of the compounds of the present invention against various microorganisms, were measured by the following agar plate dilution method. One platinum loopfull of each test microorganism incubated overnight in Mueller Hinton broth, was inoculated to Mueller Hinton agar (inoculum size: 10^6 CFU/ml) Such culture media containing various antibiotics in various concentrations were prepared After incubation at 37° C. for 16 hours, the minimum inhibitory concentrations (MIC: μg/ml) were measured. As comparative compounds, cefotaxime, oeftazidime and the compounds disclosed in Example 2 of Japanese Unexamined Patent Publication No. 215690/1985 e.g. sodium 7-[2-(2-aminothiazol-4-yl)-2-ethoxyiminoacetamido]-3-(1-carboxylatemethylpyridinio-4-yl)thiomethyl-3-cephem-4-carboxylate (hereinafter referred to simply as "Reference Example A") were employed.

E. cloacae Nek 39 = test: agar plate dilution method, MIC against E. cloacae Nek 39; format: cell-based; settings: Enterobacter cloacae, read-out: Minimum Inhibitory Concentration (MIC)
Experimental: as §1

A. calcoaceticus No. 4 = test: agar plate dilution method, MIC against A. calcoaceticus No. 4; format: cell-based; settings: Acinetobacter calcoaceticus, read-out: Minimum Inhibitory Concentration (MIC)
Experimental: as §1

K. pneumoniae No. 42 = test: agar plate dilution method, MIC against K. pneumoniae No. 42; format: cell-based; settings: Klebsiella pneumoniae, read-out: Minimum Inhibitory Concentration (MIC)
Experimental: as §1

Ps. aeruginosa AK 109 = test: agar plate dilution method, MIC against Ps. aeruginosa AK 109; format: cell-based; settings: Pseudomonas aeruginosa, AK109, 16 h, read-out: Minimum Inhibitory Concentration (MIC)
Experimental: as §1

E. coli GN5482 = test: agar plate dilution method, MIC against E. coli GN5482; format: cell-based; settings: Escherichia coli, read-out: Minimum Inhibitory Concentration (MIC)
Experimental: as §1

S. marcescens No. 16-2 = test: agar plate dilution method, MIC against S. marcescens No. 16-2; format: cell-based; settings: Serratia marcescens, NO.162, 16 h, read-out: Minimum Inhibitory Concentration (MIC)
Experimental: as §1

E. coli NIHJ JC2 = test: agar plate dilution method, MIC against E. coli NIHJ JC2; format: cell-based; settings: Escherichia coli, read-out: Minimum Inhibitory Concentration (MIC)
Experimental: as §1

K. pneumoniae PCI-602 = test: agar plate dilution method, MIC against K. pneumoniae PCI-602; format: cell-based; settings: Klebsiella pneumoniae, PCI602, 16 h, read-out: Minimum Inhibitory Concentration (MIC)
Experimental: as §1

Ps. aeruginosa IFO3445 = test: agar plate dilution method, MIC against Ps. aeruginosa IFO3445; format: cell-based; settings: Pseudomonas aeruginosa, read-out: Minimum Inhibitory Concentration (MIC)
Experimental: as §1

S. aureus 209P NIHJ-JC1 = test: agar plate dilution method, MIC against S. aureus 209P NIHJ-JC1; format: cell-based; settings: Staphylococcus aureus, 16 h, read-out: Minimum Inhibitory Concentration (MIC)
Experimental: as §1

C. freundii GN346/16 = test: agar plate dilution method, MIC against C. freundii GN346/16; format: cell-based; settings: Citrobacter freundii, read-out: Minimum Inhibitory Concentration (MIC)
Experimental: as §1

C. freundii GN346 = test: agar plate dilution method, MIC against C. freundii GN346; format: cell-based; settings: Citrobacter freundii, read-out: Minimum Inhibitory Concentration (MIC)
Experimental: as §1

S. epidermidis IAM12012 = test: agar plate dilution method, MIC against S. epidermidis IAM12012; format: cell-based; settings: Staphylococcus epidermidis, IAM12012, 16 h, read-out: Minimum Inhibitory Concentration (MIC)
Experimental: as §1

M. morganii GN5407 = test: agar plate dilution method, MIC against M. morganii GN5407; format: cell-based; settings: Morganella morganii, read-out: Minimum Inhibitory Concentration (MIC)
Experimental: as §1

S. aureus JS1 = test: agar plate dilution method, MIC against S. aureus JS1; format: cell-based; settings: Staphylococcus aureus, read-out: Minimum Inhibitory Concentration (MIC)
Experimental: as §1

Ps. maltophilia GN 12873 = test: agar plate dilution method, MIC against Ps. maltophilia GN 12873; format: cell-based, Pseudomonas maltophilia; settings: Stenotrophomonas maltophilia, read-out: Minimum Inhibitory Concentration (MIC)
Experimental: as §1

S. aureus BB5703 = test: agar plate dilution method, MIC against S. aureus BB5703; format: cell-based; settings: Staphylococcus aureus, BB5703, 16 h, read-out: Minimum Inhibitory Concentration (MIC)
Experimental: as §1

M. luteus ATCC9341 = test: agar plate dilution method, MIC against M. luteus ATCC9341; format: cell-based; settings: Micrococcus luteus, read-out: Minimum Inhibitory Concentration (MIC)
Experimental: as §1

S. marcescens IAM 1184 = test: agar plate dilution method, MIC against S. marcescens IAM 1184; format: cell-based; settings: Serratia marcescens, read-out: Minimum Inhibitory Concentration (MIC)
Experimental: as §1

P. vulgaris HX-19 = test: agar plate dilution method, MIC against P. vulgaris HX-19; format: cell-based; settings: Proteus vulgaris, HX19, 16 h, read-out: Minimum Inhibitory Concentration (MIC)
Experimental: as §1

E. coli CSH2 (RK1) = test: agar plate dilution method, MIC against E. coli CSH2 (RK1); format: cell-based; settings: Escherichia coli, 16 h, read-out: Minimum Inhibitory Concentration (MIC)
Experimental: as §1

Ps. aeruginosa AKR17 = test: agar plate dilution method, MIC against Ps. aeruginosa AKR17; format: cell-based; settings: Pseudomonas aeruginosa; Ps. aeruginosa AKR17; 10^6 CFU/ml, 37° C., 16 hours; read-out: Minimum Inhibitory Concentration (MIC)
Experimental: as §1

E. cloacae 963 = test: agar plate dilution method, MIC against E. cloacae 963; format: cell-based; settings: read-out: Minimum Inhibitory Concentration (MIC)
Experimental: as §1

K. oxytoca GN10650 = test: agar plate dilution method, MIC against K. oxytoca GN10650; format: cell-based; settings: Klebsiella oxytoca, read-out: Minimum Inhibitory Concentration (MIC)
Experimental: as §1

Ps. cepacia 23 = test: agar plate dilution method, MIC against Ps. cepacia 23; format: cell-based, Pseudomonas cepacia; settings: read-out: Minimum Inhibitory Concentration (MIC)
Experimental: as §1

E. coli CSH(RE45) = test: agar plate dilution method, MIC against E. coli CSH(RE45); format: cell-based; settings: Escherichia coli, 16 h, read-out: Minimum Inhibitory Concentration (MIC)
Experimental: as §1

Molecule `CO/N=C(\C(=O)N[C@@H]1C(=O)N2C(C(=O)O)=C(COC(C)=O)CS[C@H]12)c1csc(N)n1` [Cefotaxime, cefotaxime, reference compound] has an MIC (P. vulgaris No. 33; P. vulgaris No. 33 (lactamase-producing strain), 10^6 CFU/ml, 37° C., 16 hours) of 0.025 µg/mL (≈ 0.0549 µM), an MIC (E. cloacae Nek 39; NEK39, E. cloacae Nek 39 (lactamase-producing strain), 10^6 CFU/ml, 37° C., 16 hours) of 3.12 µg/mL (≈ 6.85 µM) and an MIC (A. calcoaceticus No. 4; A. calcoaceticus No. 4, 10^6 CFU/ml, 37° C., 16 hours) of 25 µg/mL (≈ 54.9 µM). For the same molecule, the MIC (K. pneumoniae No. 42; K. pneumoniae No. 42 (lactamase-producing strain), 10^6 CFU/ml, 37° C., 16 hours) was 0.05 µg/mL (≈ 0.11 µM), the MIC (Ps. aeruginosa AK 109) was 12.5 µg/mL (≈ 27.4 µM) and the MIC (E. coli GN5482; E. coli GN5482 (lactamase-producing strain), 10^6 CFU/ml, 37° C., 16 hours) was 0.39 µg/mL (≈ 0.856 µM). The MIC (S. marcescens No. 16-2) was 12.5 µg/mL (≈ 27.4 µM), the MIC (E. coli NIHJ JC2; NIHJJC2, E. coli NIHJ JC2, 10^6 CFU/ml, 37° C., 16 hours) was 0.05 µg/mL (≈ 0.11 µM) and the MIC (K. pneumoniae PCI-602) was < 0.006 µg/mL. The MIC (Ps. aeruginosa IFO3445; IFO3445, 16 h) was 12.5 µg/mL (≈ 27.4 µM), the MIC (S. aureus 209P NIHJ-JC1) was 1.56 µg/mL (≈ 3.43 µM) and the MIC (C. freundii GN346/16; C. freundii GN346/16, 10^6 CFU/ml, 37° C., 16 hours) was 0.1 µg/mL (≈ 0.22 µM). For the same molecule, the MIC (C. freundii GN346; C. freundii GN346 (lactamase-producing strain), 10^6 CFU/ml, 37° C., 16 hours) was 12.5 µg/mL (≈ 27.4 µM), the MIC (S. epidermidis IAM12012) was 1.56 µg/mL (≈ 3.43 µM) and the MIC (M. morganii GN5407; M. morganii GN5407 (lactamase-producing strain), 10^6 CFU/ml, 37° C., 16 hours) was 0.1 µg/mL (≈ 0.22 µM). For the same molecule, the MIC (S. aureus JS1; S. aureus JS1 (methicilline resistant; lactamase-producing strain), 10^6 CFU/ml, 37° C., 16 hours) was 25 µg/mL (≈ 54.9 µM), the MIC (Ps. maltophilia GN 12873; GN12873, Ps. maltophilia GN 12873 (lactamase-producing strain), 10^6 CFU/ml, 37° C., 16 hours) was > 100 µg/mL and the MIC (S. aureus BB5703) was 3.12 µg/mL (≈ 6.85 µM). For the same molecule, the MIC (M. luteus ATCC9341; M. luteus ATCC9341, 10^6 CFU/ml, 37° C., 16 hours) was 0.1 µg/mL (≈ 0.22 µM), the MIC (S. marcescens IAM 1184; IAM1184, S. marcescens IAM 1184, 10^6 CFU/ml, 37° C., 16 hours) was 0.1 µg/mL (≈ 0.22 µM) and the MIC (P. vulgaris HX-19) was < 0.006 µg/mL. The MIC (E. coli CSH2 (RK1)) was 0.025 µg/mL (≈ 0.0549 µM), the MIC (Ps. aeruginosa AKR17) was > 100 µg/mL and the MIC (E. cloacae 963; Enterobacter cloacae, E. cloacae 963, 10^6 CFU/ml, 37° C., 16 hours) was 0.1 µg/mL (≈ 0.22 µM). It also gave an MIC (K. oxytoca GN10650; K. oxytoca GN10650 (lactamase-producing strain), 10^6 CFU/ml, 37° C., 16 hours) of 0.39 µg/mL (≈ 0.856 µM), an MIC (Ps. cepacia 23; Burkholderia cepacia, 23, 16 h) of 6.25 µg/mL (≈ 13.7 µM) and an MIC (E. coli CSH(RE45)) of 0.1 µg/mL (≈ 0.22 µM).

With `CC(C)(O/N=C(\C(=O)N[C@@H]1C(=O)N2C(C(=O)[O-])=C(C[n+]3ccccc3)CS[C@H]12)c1csc(N)n1)C(=O)O` [Ceftazidime, ceftazidime, reference compound] the MIC (P. vulgaris No. 33; NO.33, 16 h) was 0.05 µg/mL (≈ 0.0915 µM), the MIC (E. cloacae Nek 39; NEK39, 16 h) was 3.12 µg/mL (≈ 5.71 µM) and the MIC (A. calcoaceticus No. 4; NO.4, 16 h) was 6.25 µg/mL (≈ 11.4 µM). For the same molecule, the MIC (K. pneumoniae No. 42; NO.42, 16 h) was 0.39 µg/mL (≈ 0.714 µM), the MIC (Ps. aeruginosa AK 109) was 1.56 µg/mL (≈ 2.85 µM) and the MIC (E. coli GN5482; GN5482, 16 h) was 1.56 µg/mL (≈ 2.85 µM). For the same molecule, the MIC (S. marcescens No. 16-2) was 1.56 µg/mL (≈ 2.85 µM), the MIC (E. coli NIHJ JC2; NIHJJC2, 16 h) was 0.2 µg/mL (≈ 0.366 µM) and the MIC (K. pneumoniae PCI-602) was < 0.006 µg/mL. For the same molecule, the MIC (Ps. aeruginosa IFO3445; Ps. aeruginosa IFO3445, 10^6 CFU/ml, 37° C., 16 hours) was 0.39 µg/mL (≈ 0.714 µM), the MIC (S. aureus 209P NIHJ-JC1) was 6.25 µg/mL (≈ 11.4 µM) and the MIC (C. freundii GN346/16; GN346, 16 h) was 0.2 µg/mL (≈ 0.366 µM). For the same molecule, the MIC (C. freundii GN346; GN346, 16 h) was 25 µg/mL (≈ 45.7 µM), the MIC (S. epidermidis IAM12012) was 3.12 µg/mL (≈ 5.71 µM) and the MIC (M. morganii GN5407; GN5407, 16 h) was 0.1 µg/mL (≈ 0.183 µM). It also gave an MIC (S. aureus JS1; JS1, 16 h) of 25 µg/mL (≈ 45.7 µM), an MIC (Ps. maltophilia GN 12873; GN12873, 16 h) of 100 µg/mL (≈ 183 µM) and an MIC (S. aureus BB5703) of 12.5 µg/mL (≈ 22.9 µM). The MIC (M. luteus ATCC9341; ATCC9341, 16 h) was 0.78 µg/mL (≈ 1.43 µM), the MIC (S. marcescens IAM 1184; IAM1184, 16 h) was 0.025 µg/mL (≈ 0.0457 µM) and the MIC (P. vulgaris HX-19) was 0.025 µg/mL (≈ 0.0457 µM). The MIC (E. coli CSH2 (RK1)) was 0.1 µg/mL (≈ 0.183 µM), the MIC (Ps. aeruginosa AKR17) was > 100 µg/mL and the MIC (E. cloacae 963; Enterobacter cloacae, 963, 16 h) was 0.2 µg/mL (≈ 0.366 µM). The MIC (K. oxytoca GN10650; GN10650, 16 h) was 0.2 µg/mL (≈ 0.366 µM), the MIC (Ps. cepacia 23; Burkholderia cepacia, Ps. cepacia 23, 10^6 CFU/ml, 37° C., 16 hours) was 0.78 µg/mL (≈ 1.43 µM) and the MIC (E. coli CSH(RE45)) was 0.1 µg/mL (≈ 0.183 µM).
